pEC50: −log10 of the molar value. Values after ≈ are worked out from the molar mass of the structure shown. Where a SMILES comes first, the peptide text is derived from it. [ ]: non-standard residue; d: D form. Aib = CC(C)(N)C(=O)O

A short description of data set [1]: Maximum solubility in phosphate buffer pH 7.4. The class given is physicochemical. The settings on record: phosphate buffer pH 7.4, room temperature.
The next data set has as its target T1, human GIPR (Homo sapiens, UniProt P48546).
T1 construct: expressed in transfected cells
T1 sequence (P48546 22-466): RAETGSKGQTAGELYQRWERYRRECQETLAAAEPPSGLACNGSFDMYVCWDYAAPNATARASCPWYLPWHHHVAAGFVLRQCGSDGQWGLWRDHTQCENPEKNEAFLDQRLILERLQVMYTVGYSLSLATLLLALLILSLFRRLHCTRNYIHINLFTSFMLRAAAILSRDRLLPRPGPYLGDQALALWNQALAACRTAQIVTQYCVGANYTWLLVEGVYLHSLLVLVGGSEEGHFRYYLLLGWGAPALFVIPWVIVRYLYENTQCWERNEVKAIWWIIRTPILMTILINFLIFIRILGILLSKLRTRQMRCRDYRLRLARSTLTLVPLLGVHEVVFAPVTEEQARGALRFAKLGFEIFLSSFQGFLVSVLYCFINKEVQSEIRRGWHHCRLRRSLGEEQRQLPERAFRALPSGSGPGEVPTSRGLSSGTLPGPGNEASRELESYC
The data set is described as follows: Agonist activity assay for GIPR (cAMP HTRF). The data set is classed as cell-based. The method, then:
The activation of GCGR by related compounds will stimulate the formation of cyclic adenosine monophosphate (cAMP) in cells. Thus, the receptor activity can be monitored by cAMP production in proper cells expressing the receptor.
Agonist activity assay for GCGR: Cryopreserved stable CHO-K1/GCGR/CRE-Luc cells were taken from a liquid nitrogen tank, thawed in a 37° C. water bath, resuspended in DMEM/F12 medium (Sigma Cat #D8437), centrifuged, and seeded into T75 culture flasks. The cells were passaged at least once for subsequent tests. Before testing, the cells were trypsinized, centrifuged, washed once, and resuspended in serum-free DMEM/F12 medium. The cell density was adjusted, and the cells were plated in a 96-well plate at a density of 2,500 cells/5 μL/well. A 1×buffer solution in Cisbio-cAMP-Gs Dynamic kit was prepared, and IBMX was added at a final concentration of 0.5 mM. 5 μL of polypeptide serially diluted by buffer was added into each well, and the plate was shaken gently for mixing and incubated for 30 minutes at 37° C. cAMP-d2 and Anti-cAMP-Eu^3+-Cryptate were 20-fold diluted with cAMP Lysis and detection buffer respectively and mixed well. 5 μL of diluted cAMP-d2 solution and 5 μL of diluted Anti-cAMP-Eu^3+-Cryptate solution were sequentially added into each well. The mixture was mixed well by moderate vibration, and incubated for 1 hour at room temperature away from light.
Agonist activity assay for GIPR: The method differed from the method described above for the agonist activity assay for GCGR in that a stable CHO-K1/GIPR cell line was used, and the cell density was 3,000 cells/5 μL/well.

For the compound `CC(C)C[C@H](NC(=O)[C@H](Cc1ccc(O)cc1)NC(=O)[C@H](CCCCN)NC(=O)[C@H](CO)NC(=O)[C@H](Cc1ccc(O)cc1)NC(=O)[C@H](CC(=O)O)NC(=O)[C@H](CO)NC(=O)[C@@H](NC(=O)[C@H](Cc1ccccc1)NC(=O)[C@@H](NC(=O)CNC(=O)[C@H](CCC(N)=O)NC(=O)[C@H](CO)NC(=O)[C@@H](N)Cc1c[nH]cn1)[C@@H](C)O)[C@@H](C)O)C(=O)N[C@@H](CC(=O)O)C(=O)N[C@@H](CC(C)C)C(=O)NC(C)(C)C(=O)N[C@@H](CCCNC(=N)N)C(=O)N[C@@H](C)C(=O)N[C@@H](CCC(N)=O)C(=O)N[C@@H](CCC(=O)O)C(=O)N[C@@H](Cc1ccccc1)C(=O)N[C@H](C(=O)N[C@@H](CCC(N)=O)C(=O)N[C@@H](Cc1c[nH]c2ccccc12)C(=O)N[C@@H](CC(C)C)C(=O)N[C@@H](CCC(=O)O)C(=O)N[C@@H](CO)C(=O)N[C@H](C(=O)O)[C@@H](C)O)C(C)C` [Compound 40] (H-HSQGTFTSDYSKYLDL[Aib]RAQEFVQWLEST-OH), in data set [1], the solubility at 5 min came to 5190 µg/mL (≈ 1520 µM). Further, at human GIPR (CHO-K1/GIPR cell line, cAMP), the pEC50 is < 7.00. In addition, on human GIPR (relative to native GIP), the “GIPR % Activity relative to native GIP” value is recorded as <0.0700%.
